In patent US9856254B2, “Alkoxy substituted imidazoquinolines” (3M INNOVATIVE PROPERTIES COMPANY, priority 2003, dated 2018):

melting point	Compound
171.1 to 173.2 °C	CCCCc1nc2c(N)nc3ccc(OCCC4CCN(C(=O)OC(C)(C)C)CC4)cc3c2n1C [Example 37, tert-Butyl 4-[2-(4-amino-2-butyl-1-methyl-1H-imidazo[4,5-c]quinolin-8-yloxy)ethyl]piperidine-1-carboxylate]
195.5 to 197 °C	CCOCc1nc2c(N)nc3cc(OC4CCOC4)ccc3c2n1CCCCN1CCCS1(=O)=O (stereo not drawn) [Example 401, 1-[4-(1,1-Dioxidoisothiazolidin-2-yl)butyl]-2-(ethoxymethyl)-7-(tetrahydrofuran-3-yloxy)-1H-imidazo[4,5-c]quinolin-4-amine]
133.5 to 135 °C	CCCn1c(CCOC)nc2c(N)nc3cc(OCCCNC(=O)OC(C)(C)C)ccc3c21 [Example 393, tert-Butyl 3-{[4-amino-2-(2-methoxyethyl)-1-propyl-1H-imidazo[4,5-c]quinolin-7-yl]oxy}propylcarbamate]
190.5 to 192 °C	CCCn1c(CCO)nc2c(N)nc3cc(OCCCNC(=O)C(C)C)ccc3c21 [Example 395, N-(3-{[4-Amino-2-(2-hydroxyethyl)-1-propyl-1H-imidazo[4,5-c]quinolin-7-yl]oxy}propyl)-2-methylpropanamide]
209 to 211 °C	CCOCc1nc2c(N)nc3cc(OCC(=O)N4CCOCC4)ccc3c2n1CC(C)(C)O [Example 646, 1-[4-Amino-2-(ethoxymethyl)-7-(2-morpholin-4-yl-2-oxoethoxy)-1H-imidazo[4,5-c]quinolin-1-yl]-2-methylpropan-2-ol]
90 to 110 °C	CCOCc1nc2c(N)nc3cc(OCCCCCCNC(C)=O)ccc3c2n1CC(C)(C)NC(=O)NC(C)C [Example 370, N-(6-{[4-Amino-2-(ethoxymethyl)-1-(2-{[(isopropylamino)carbonyl]amino}-2-methylpropyl)-1H-imidazo[4,5-c]quinolin-7-yl]oxy}hexyl)acetamide]
224 to 225.5 °C	CCCn1c(CCOC)nc2c(N)nc3cc(OC4CCN(S(C)(=O)=O)CC4)ccc3c21 [Example 390, 2-(2-Methoxyethyl)-7-{[1-(methylsulfonyl)piperidin-4-yl]oxy}-1-propyl-1H-imidazo[4,5-c]quinolin-4-amine]
125 to 128 °C	CCCCc1nc2c(N)nc3ccc(OCC(=O)N(CCOC)CCOC)cc3c2n1C [Example 36, 2-[(4-Amino-2-butyl-1-methyl-1H-imidazo[4,5-c]quinolin-8-yl)oxy]-N,N-bis(2-methoxyethyl)acetamide]
170 to 171 °C	CCCn1c(CCOC)nc2c(N)nc3cc(OCCCS(C)(=O)=O)ccc3c21 [Example 392, 2-(2-Methoxyethyl)-7-[3-(methylsulfonyl)propoxy]-1-propyl-1H-imidazo[4,5-c]quinolin-4-amine]
238 °C (dec.)	CCc1nc2c(N)nc3cc(OCCN)ccc3c2n1CC1CCOCC1 [Example 650, 7-(2-Aminoethoxy)-2-ethyl-1-(tetrahydro-2H-pyran-4-ylmethyl)-1H-imidazo[4,5-c]quinolin-4-amine]
213 °C	CCCn1c(COCC)nc2c(N)nc3cc(OCC(=O)N4CCOCC4)ccc3c21 [Example 648, 2-(Ethoxymethyl)-7-(2-morpholin-4-yl-2-oxoethoxy)-1-propyl-1H-imidazo[4,5-c]quinolin-4-amine]
165 to 166.5 °C	CCCn1c(CCOC)nc2c(N)nc3cc(OCCCN)ccc3c21 [Example 394, 7-(3-Aminopropoxy)-2-(2-methoxyethyl)-1-propyl-1H-imidazo[4,5-c]quinolin-4-amine]
110 to 120 °C	CCOCc1nc2c(N)nc3cc(OCCCCCCNC(=S)NC(C)C)ccc3c2n1CC(C)(C)NC(C)=O [Example 368, N-(2-{4-Amino-2-(ethoxymethyl)-7-[(6-{[(isopropylamino)carbonothioyl]amino}hexyl)oxy]-1H-imidazo[4,5-c]quinolin-1-yl}-1,1-dimethylethyl)acetamide]
158 to 159 °C	CCOCc1nc2c(N)nc3cc(OC4CCN(C(=O)OC(C)(C)C)CC4)ccc3c2n1CC1COC(C)(C)O1 (stereo not drawn) [Example 374, tert-Butyl 4-{[4-amino-1-[(2,2-dimethyl-1,3-dioxolan-4-yl)methyl]-2-(ethoxymethyl)-1H-imidazo[4,5-c]quinolin-7-yl]oxy}piperidine-1-carboxylate]
235.7 to 238.1 °C	Cc1nc2c(N)nc3cc(OCCC4CCN(C(=O)C5CCCC5)CC4)ccc3c2n1CC(C)C [Example 27, 7-{2-[1-(Cyclopentylcarbonyl)piperidin-4-yl]ethoxy}-2-methyl-1-(2-methylpropyl)-1H-imidazo[4,5-c]quinolin-4-amine]
178 to 180 °C	CCCc1nc2c(N)nc3cc(OCC(=O)c4ccccc4)ccc3c2n1CC(C)C [Example 1, 2-(4-Amino-1-(2-methylpropyl)-2-propyl-1H-imidazo[4,5-c]quinolin-7-yloxy)-1-phenylethanone]
160 to 162 °C	CCCn1c(COC)nc2c(N)nc3ccc(OCCN4CCCCC4)cc3c21 [Example 559, 2-Methoxymethyl-8-(2-piperidin-1-ylethoxy)-1-propyl-1H-imidazo[4,5-c]quinolin-4-amine]
205 to 209 °C	CCOCc1nc2c(N)nc3cc(OCCCCCCNC(=O)NC(C)C)ccc3c2n1CC(C)(C)NC(=O)NC(C)C [Example 369, N-(2-{4-Amino-2-(ethoxymethyl)-7-[(6-{[(isopropylamino)carbonyl]amino}hexyl)oxy]-1H-imidazo[4,5-c]quinolin-1-yl}-1,1-dimethylethyl)-N′-isopropylurea]
185.9 to 188.1 °C	CCCCc1nc2c(N)nc3ccc(OCC(=O)N(CC)CC)cc3c2n1C [Example 35, 2-[(4-Amino-2-butyl-1-methyl-1H-imidazo[4,5-c]quinolin-8-yl)oxy]-N,N-diethylacetamide]
144 to 146 °C	CCCn1c(CCOC)nc2c(N)nc3cc(OC(=O)NC(C)C)ccc3c21 [Example 366, 4-Amino-2-(2-methoxyethyl)-1-propyl-1H-imidazo[4,5-c]quinolin-7-yl isopropylcarbamate]
142 to 144 °C	CCOCc1nc2c(N)nc3cc(OCCCN4CCCC4=O)ccc3c2n1CCCCN1CCCS1(=O)=O [Example 402, 1-(3-{[4-Amino-1-[4-(1,1-dioxidoisothiazolidin-2-yl)butyl]-2-(ethoxymethyl)-1H-imidazo[4,5-c]quinolin-7-yl]oxy}propyl)pyrrolidin-2-one]
214 to 215 °C (dec.)	CCOCc1nc2c(N)nc3cc(OC4CCN(C(=O)OC(C)(C)C)CC4)ccc3c2n1CC(C)(C)O [Example 563, tert-Butyl 4-{[4-amino-2-(ethoxymethyl)-1-(2-hydroxy-2-methylpropyl)-1H-imidazo[4,5-c]quinolin-7-yl]oxy}piperidine-1-carboxylate]
134.5 to 136 °C	CCOCc1nc2c(N)nc3cc(OCCCN4CCCC4=O)ccc3c2n1CCCCNC(=O)OC(C)(C)C [Example 397, tert-Butyl 4-{4-amino-2-(ethoxymethyl)-7-[3-(2-oxopyrrolidin-1-yl)propoxy]-1H-imidazo[4,5-c]quinolin-1-yl}butylcarbamate]
165 to 167 °C	CCc1nc2c(N)nc3cc(OCCNC(C)=O)ccc3c2n1CC1CCOCC1 [Example 652, N-(2-{[4-Amino-2-ethyl-1-(tetrahydro-2H-pyran-4-ylmethyl)-1H-imidazo[4,5-c]quinolin-7-yl]oxy}ethyl)acetamide]
